This note sets out measurements from patent USRE32300E, “Basic amino or ammonium antimicrobial agent-polyethylene glycol ester surfactant-betaine and/or amine oxide surfactant compositions and method of use thereof” (Sterling Drug Inc., priority 1985, dated 1986).

Molecules are shown by their SMILES.

The test system of the test is Staphylococcus aureus ATCC 6538. Nature of the test: serial dilution test against Staphylococcus aureus ATCC 6538 (compatibility of antimicrobial agents with prototype vehicle). The test is classed as cell-based. The conditions noted are these: Id expressed as free base, IVa-IVc as cation (A=Br). The method, then:
Compatability of the antimicrobial agents of Formula Id, Formula IIa, Formula IVa (A=Br), Formula IVb (A=Br) and Formula IVc (A=Br) with a prototype vehicle of the invention was tested by a serial dilution test against Staphylococcus aureus ATCC 6538. Volumes of two milliliters were used. Dilutions were in tryptosephosphate broth. Incubation was for 16-18 hours at 37° C. Growth was verified with 2,3,5-triphenyltetrazoliumchloride. The inoculum was 1.8×10^5 viable cells per tube. There follows the formula of the prototype vehicle.

`CCCCCCCCNc1cc[n+](CCCCCCCCCC[n+]2ccc(NCCCCCCCC)cc2)cc1` [Formula IVb]: the “Minimum Inhibitory Concentration (MIC)” value reads like this: (added vehicle 0 μg/ml) 0.5 µg/mL; (added vehicle 15.6 μg/ml) 0.5 µg/mL; (added vehicle 31.2 μg/ml) 0.5 µg/mL; (added vehicle 62.5 μg/ml) 0.5 µg/mL; (added vehicle 125.0 μg/ml) 0.5 µg/mL.

`CCCCCCCNc1cc[n+](CCCCCCCCCCCC[n+]2ccc(NCCCCCCC)cc2)cc1` [Formula IVa]: the “Minimum Inhibitory Concentration (MIC)” value reads like this: (added vehicle 125.0 μg/ml) 0.10 µg/mL; (added vehicle 250.0 μg/ml) 0.10 µg/mL; (added vehicle 500.0 μg/ml) 0.10 µg/mL; (added vehicle 2000.0 μg/ml) 0.10 µg/mL; (added vehicle 8000.0 μg/ml) 0.10 µg/mL.
